The source of these data is patent US5972894A, “Peptides having potassium channel opener activity” (Cytran, Inc., priority 1997, dated 1999).

In one experiment the test system is Intestinal Smooth Muscle. Description: Calcium-induced contraction of intestinal smooth muscle specimens. The class given is cell-based, guinea pigs. The note with it: 20 mM CaCl2. On the procedure: GE and VT served as test substances in this experiment. GE was tested at concentrations of 10^-6 g/ml and 10^-5 g/ml (4.9×10^-6 M and 4.9×10^-5 M, respectively), and VT was tested at concentrations 10^-6 g/ml and 10^-5 g/ml (4.58×10^-6 and 4.58×10^-5 M, respectively).
Small intestinal SMS samples from ten guinea pigs were surgically isolated and prepared as follows. First, the SMS samples were preincubated for 40 minutes in an organ bath holding a standard Krebs-Henseleit physiological salt solution containing calcium chloride (CaCl2) at concentration of 2.5 mM. Next, each SMS was washed with a calcium-free solution of Krebs-Henseleit and incubated in a calcium-free Krebs-Henseleit solution for 40 minutes. Contractile activity was pre-induced in each SMS by first perfusing the organ bath containing the sample for 15 minutes with a Krebs-Henseleit solution containing 30 mM KCl and then perfusing the bath for an additional 15 minutes with a Krebs-Henseleit solution containing 20 mM CaCl2. Finally, each SMS sample was washed with a calcium-free Krebs-Henseleit solution for 40 minutes. In these experiments, measurements of the contractile response of the SMS following the addition of a Krebs-Henseleit solution containing 20 mM calcium served as the control (baseline). Changes in contraction amplitudes were recorded by using the method set forth in Step 1 of Example 2, above.
After washing the SMS as outlined in Step 1, the organ bath with the SMS sample was perfused for 15 minutes with the solution of a test or reference substance. In this instance, GE and VT served as the test substances, and each dipeptide was tested at a concentration of 10^-6 g/ml.
Following perfusion with the test or reference substance, the SMS sample/organ bath was perfused for 10 minutes with a Krebs-Henseleit solution containing 30 mM KCl and then perfused for an additional 10 minutes with a Krebs-Henseleit solution containing 20 mM CaCl2. Next, each SMS sample was washed with a calcium-free Krebs-Henseleit solution for 40 minutes. The effect of the test or reference substance on the SMS sample was evaluated by measuring the contractile response (i.e., the change in contraction amplitude) of the sample following the addition of the Krebs-Henseleit solution containing 20 mM CaCl2.
Next, the organ bath was perfused for 10 minutes with a Krebs-Henseleit solution containing 30 mM KCl and then for additional 10 minutes with a Krebs-Henseleit solution containing 20 mM CaCl2. The effect of the respective test or reference substance was evaluated a second time by measuring the change in the contraction amplitude of the SMS following the addition of the Krebs-Henseleit solution containing 20 mM CaCl2. […]

Experiment [1] has as its system rats. Description: CPK activity in blood serum 1 hour after coronary occlusion. The note with it: dose printed --; i.v.; 1 hour after coronary occlusion. Type of experiment: in vivo. The protocol: White random-bred male rats weighing approximately 200 g were anesthetized using a light ether administration and then immobilized and artificially ventilated. […] Immediately after ligation, a test substance, positive, control substance, or negative control substance (described below) was administered to a rat through a catheterized femoral vein. Each dose of each test substance or positive or negative control substance was administered to an experimental or control group of 9 test rats. In this study, GE and VT served as test substances, propranolol served as the positive control substance, and physiological saline served as the negative control substance. Each test rat in an experimental group was given a dose of either 0.1, 1.0, or 10.0 milligram GE per kilogram of body weight of the subject animal (mg/kg) or 0.1, 1.0, or 10.0 milligram VT per kilogram of body weight of the animal. Each animal of the positive control group received an intravenous dose of 0.5 mg of β-adrenergic blocking agent, propranolol (Obzidan, Germed, Germany) per kilogram of body weight. Propranolol is commonly used to manage cardiac arrhythmia and there is some evidence that the agent may reduce the extent of ischemic damage to the heart. […] Each animal of the negative control group received physiological saline.
One hour after initiation of the coronary artery occlusion, each test animal was sacrificed, its blood was collected, and the CPK activity in its blood serum was measured. CPK activity was determined by using a standard biochemical method, such as that commercially available from the Lachema Company (Czechia) in its test kit, and by following the manufacturer's process instructions included in the package insert.
As a supplementary control for the possible trauma caused by the surgical procedure, a group of 9 sham-operated rats was included in the study. These test animals were subjected to chest dissection, but not to coronary artery occlusion. These "sham-operated" animals were not treated with any test or control substances and were euthanized 1 hour after surgery. Their blood was then collected for determination of CPK activity.

Experiment [2] relates to rats. Description: Early ischemic myocardial arrhythmias after coronary artery ligation. The class given is in vivo. The note with it: 0.5 mg/kg i.v.; 30 min after coronary occlusion. On the procedure: White random-bred male rats weighing 200 g were given light ether anesthesia and were then immobilized and artificially ventilated. The descending branch of the left coronary artery of each rat was ligated. Immediately following ligation, a test or control substance was administered to each rat through the catheterized femoral vein, and an ECG recording was initiated (standard lead II) and maintained for the next 30 minutes.
GE and VT served as test substances and were administered to animals in the respective test groups at doses of 0.1, 1.0, and 10.0 mg/kg. The β-adrenergic blocking agent, propranolol (Obzidan, Germed, Germany), served as the positive control substance and was administered intravenously to each animal in the positive control group at a dose of 0.5 mg/kg. Physiological saline served as the negative control substance and was administered intravenously to animals in the negative control group. Each dose of each test or control substance was tested separately on a group of nine animals.
The following parameters were evaluated based upon the ECG recordings: (i) the number of ventricular extrasystoles that occurred within a 30-minute observation period following coronary occlusion; (ii) the overall cumulative duration of ventricular tachycardias (i.e., the summation of duration of individual paroxysmal ventricular rhythm disturbances in seconds) occurring within the 30-minute observation period; and (iii) the overall duration (in seconds) of the ventricular fibrillations occurring within the 30-minute observation period. The data were processed electronically and statistical comparisons were made between the values obtained from the animals in the experimental test groups and those in the different respective control groups.

Experiment [3] deals with Smooth Muscle Cells of Rat Portal Vein. The experiment can be described thus: Spontaneous contractile activity of rat portal vein smooth muscle specimens. Type of experiment: cell-based. The note with it: 5×10^-7 g/ml. On the procedure: Rat portal vein SMS samples were surgically isolated from random bred rats weighing 200-250 g. The suitability of each isolated rat portal vein SMS was established by measuring the spontaneous contraction response and its contractile response of the specimen to potassium chloride (KCl) as follows. Each isolated SMS was placed into an organ bath with standard Krebs-Henseleit (KH) solution at 35° C. Then, 0.5 ml of physiological saline were added into the organ bath. In this procedure, one end of the smooth muscle strip was fixed, while the other end of the muscle strip was connected with a probe which transmitted contraction-induced signals to an analog-to-digital converter. The spontaneous contraction curve for each SMS was recorded by taking repeated measurements over a 1-minute period. Next, 0.5 ml of a 600 mM solution of KCl in physiological saline was added to the SMS sample/organ bath to achieve a final concentration of 60 mM KCl. KCl induces contraction of rat portal vein tissue at a fmal tissue concentration of about 60 mM.
The KCl-induced contraction curve for each specimen sample was then recorded over the next 5-minute period. […] During this stabilization period, the spontaneous contraction curve for each SMS was verified by monitoring the data obtained from analog-to-digital converter.
To each SMS in the organ bath prepared according to Steps 2 and 3 above, 0.5 ml of physiological saline was added, and the spontaneous contraction curve was recorded for 1 minute. Each spontaneous contraction curve served as baseline (control) curve for comparison with the respective spontaneous contraction of each SMS in the presence of a test substance or reference substance.
Spontaneous contraction curve values for each SMS were recorded by making repetitive measurements of the spontaneous contractile activity of each sample at 2, 5, 10, and 15 minutes after the addition of the test or reference substance to each SMS/organ bath. Next, 0.5 ml of a solution of 600 mM solution of KCl in […] in the organ bath until a final concentration of 60 mM KCl was achieved. The contractile activity of each SMS was then measured for 5 minutes.

Regarding `CN1[C@@H]2CC[C@H]1C[C@@H](OC(=O)C(CO)c1ccccc1)C2` (stereo partly drawn) [Atropine, atropine], the “Contraction Amplitude, calcium-induced (% of control level)” value is given as 39.57% in the experiment on Intestinal Smooth Muscle (Application I, 10^-7 g/ml) and 25.08% in the experiment on Intestinal Smooth Muscle (Application II, 10^-6 g/ml).

Turning to `COc1ccc([C@@H]2Sc3ccccc3N(CCN(C)C)C(=O)[C@@H]2OC(C)=O)cc1` [Diltiazem, diltiazem], the “Contraction Amplitude, calcium-induced (% of control level)” value in the experiment on Intestinal Smooth Muscle (Application I, 10^-9 g/ml) is 39.02%; in the experiment with Intestinal Smooth Muscle (Application II, 10^-8 g/ml) it was 12.95%.

On to `CC(C)NCC(O)COc1cccc2ccccc12` (stereo not drawn) [Propranolol, propranolol, reference compound], for which, in the experiment on rats [1], the “CPK Activity in blood serum” value is 0.170 (±0.011) mcCat/L. Further, in the experiment with rats [2], the “Number of Ventricular Extrasystoles” value is 61.22 and the “Overall Duration of Ventricular Tachycardia” value amounted to 56.74 s.

Consider `COc1ccc(CCN(C)CCCC(C#N)(c2ccc(OC)c(OC)c2)C(C)C)cc1OC` (stereo not drawn) [Verapamil, reference compound], for which the “Amplitude of spontaneous contraction (% of Control)” value in experiment [3] (2 min after application) is recorded as 95.82%; in experiment [3] (5 min after application), 78.58%; in experiment [3] (10 min after application), 60.79%; in experiment [3] (15 min after application), 37.92%. Also, the “Area Under Curve of spontaneous contraction (% of Control)” value is listed as 82.41% in experiment [3] (2 min after application), 62.11% in experiment [3] (5 min after application), 49.83% in experiment [3] (10 min after application) and 35.13% in experiment [3] (15 min after application).
